The record followed here is US20230219949A1, “INHIBITORS OF (ALPHA-V)(BETA-6) INTEGRIN” (priority 2018, published 2023).

Data set [1] deals with Madin-Darby Canine Kidney (MDCK) cells. The experiment in a line: MDCK in vitro permeability assay, wild type MDCK cells with no inhibitor (A→B). The class given is in vitro ADME. The note with it: no Pgp inhibitor, apical to basolateral. Here is the method:
(§1) Compounds were tested for permeability in an MDCK permeability assay. This assay measures the ability of compounds to cross a layer of Madin-Darby Canine Kidney (MDCK) cells from the apical to basolateral side (A→B). This measurement is predictive of the ability of compounds to be absorbed in the gut following oral dosing, an essential characteristic of an orally administered small molecule integrin inhibitor drug.
(§2) The assay is run in two formats. One uses wild type MDCK cells with no inhibitor. This method works well in determining the passive permeability of compounds with low efflux by P-glyocprotein (Pgp), and was used to assess permeability of a Reference Compound having the chemical formula shown below.
(§3) Cell Culture and Maintenance: • Cell stock cultures (MDCK or MDCK MDR1) are maintained in MEM+10% FBS+1% NEAA, grown in 75 cm^2 tissue culture treated flasks and split (passed) 2 times weekly to maintain desired confluence. • For maintenance passage: trypsinized cells are routinely distributed into new flasks at a standard passage ratio of 1:20.
(§4) Seeding assay plates: MDCK assay plates are seeded with MDCK or MDCK MCR1 cells 3-4 days prior to running the assay. 24-well plates are seeded at a cell density of 0.88×10^5/well in a 400 μL apical chamber volume (2.2×10^5/mL) with a […] volume of growth medium to the 24-well basal chamber. […]

Experiment in data set [2]: as above
The class given is in vitro ADME, Canine. The note with it: dog, no Pgp inhibitor, apical to basolateral. Here is the method:
as §1, §2, §3, §4

The target of data set [3] is integrin αvβ6 (Homo sapiens, UniProt P06756+P18564). The experiment in a line: Fluorescence polarization assay for αvβ6 binding (competition with fluorescein-labeled peptide GRGDLGRL). Conditions: fluorescence polarization assay of Example 12; 10 nM integrin αvβ6, 3 nM labeled peptide; read-out: avb6. (IC50). Here is the method: Fluorescence Polarization (FP) assays were used to measure compound activity through binding competition with the fluorescein-labeled peptide GRGDLGRL. In the assay, 10 nM of integrin αvβ6 was incubated with the test compound in 2 mM manganese chloride, 0.1 mM calcium chloride, 20 mM HEPES buffer at pH 7.3, 150 mM sodium chloride, 0.01% Triton X-100, 2% DMSO, and 3 nM of the fluorescein-labeled peptide. The assays were run in 384-well plates. For both assay versions, the integrin protein was pre-incubated with the test compounds for 15 minutes at 22° C. before the fluorescein-labeled peptide was added. After the fluorescein-labeled peptide was added, the assay was incubated at 22° C. for 1 hour and fluorescence polarization was measured. IC50 values were determined by nonlinear regression, 4-parameter curve fitting (FIG. 1).
integrin αvβ6, sequence (P06756 31-992 limits assumed): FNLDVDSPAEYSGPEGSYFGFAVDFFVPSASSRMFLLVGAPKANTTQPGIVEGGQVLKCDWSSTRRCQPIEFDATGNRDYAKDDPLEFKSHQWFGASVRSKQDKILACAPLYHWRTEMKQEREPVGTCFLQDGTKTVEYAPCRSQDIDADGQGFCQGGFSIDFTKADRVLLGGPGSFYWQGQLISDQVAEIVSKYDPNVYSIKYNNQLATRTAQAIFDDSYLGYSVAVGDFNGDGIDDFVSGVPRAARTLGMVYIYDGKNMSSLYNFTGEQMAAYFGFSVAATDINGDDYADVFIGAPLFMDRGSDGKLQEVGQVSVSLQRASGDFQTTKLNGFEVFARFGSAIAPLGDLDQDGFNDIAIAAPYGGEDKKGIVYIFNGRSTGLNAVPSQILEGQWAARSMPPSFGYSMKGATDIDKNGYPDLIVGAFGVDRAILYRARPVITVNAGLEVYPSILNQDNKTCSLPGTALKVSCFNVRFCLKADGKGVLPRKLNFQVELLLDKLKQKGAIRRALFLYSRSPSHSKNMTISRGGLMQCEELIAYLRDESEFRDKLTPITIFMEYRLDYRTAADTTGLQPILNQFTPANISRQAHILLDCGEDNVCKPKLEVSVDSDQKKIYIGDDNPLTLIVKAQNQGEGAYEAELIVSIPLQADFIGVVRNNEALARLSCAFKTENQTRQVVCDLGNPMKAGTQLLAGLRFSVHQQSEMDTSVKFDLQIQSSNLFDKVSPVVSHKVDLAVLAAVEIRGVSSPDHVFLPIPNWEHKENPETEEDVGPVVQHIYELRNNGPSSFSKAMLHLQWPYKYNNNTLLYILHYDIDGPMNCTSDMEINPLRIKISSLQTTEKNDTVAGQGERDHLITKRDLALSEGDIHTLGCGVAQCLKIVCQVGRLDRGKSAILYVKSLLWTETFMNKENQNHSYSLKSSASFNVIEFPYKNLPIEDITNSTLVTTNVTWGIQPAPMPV
integrin αvβ6, sequence (P18564 22-709 limits assumed): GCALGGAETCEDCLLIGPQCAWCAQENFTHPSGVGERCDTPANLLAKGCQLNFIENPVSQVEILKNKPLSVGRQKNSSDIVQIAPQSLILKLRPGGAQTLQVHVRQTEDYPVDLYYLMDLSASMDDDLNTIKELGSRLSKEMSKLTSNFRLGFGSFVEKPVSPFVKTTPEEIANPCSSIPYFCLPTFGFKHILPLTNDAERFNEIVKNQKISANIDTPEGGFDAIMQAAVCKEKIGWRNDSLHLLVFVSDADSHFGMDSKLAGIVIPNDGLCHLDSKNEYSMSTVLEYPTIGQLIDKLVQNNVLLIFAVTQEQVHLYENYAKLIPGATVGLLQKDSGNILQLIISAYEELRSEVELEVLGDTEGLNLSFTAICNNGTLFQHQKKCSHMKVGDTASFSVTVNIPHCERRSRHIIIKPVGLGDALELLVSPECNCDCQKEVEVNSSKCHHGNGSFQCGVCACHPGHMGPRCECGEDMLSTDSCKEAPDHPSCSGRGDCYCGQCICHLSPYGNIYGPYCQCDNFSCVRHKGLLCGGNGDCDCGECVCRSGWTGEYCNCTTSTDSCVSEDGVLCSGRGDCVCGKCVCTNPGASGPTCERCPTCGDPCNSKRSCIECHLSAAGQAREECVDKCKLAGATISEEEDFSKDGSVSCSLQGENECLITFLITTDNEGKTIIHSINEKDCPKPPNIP
Background: Polarisation of emitted light reports the rotation of a fluorescent probe.

Where “and” joins values, the source holds several entries; their conditions need not be identical. Identical values can stand only once.

In general, Papp A→B refers to how fast a substance crosses the layer from the apical side. The low end stands for slow passage, the high end for fast passage. Broadly, the IC50 is the concentration at which inhibition is half-maximal. Regarding `O=C(O)CN1CCC(C(=O)N2CCC(c3ccc4c(n3)NCCC4)CC2)CC1` [Reference Compound], in data set [1], the “MDCK (A−>B)” value was “less than 0.23”. Further, in data set [2], the Papp A→B at 90 min, 5 μM was less than 0.23 ×10⁻⁶ cm/s. Further, the IC50 in data set [3] is ~96.5 nM and 96.5 nM.
